Among the data in patent US20260356820A1, “Pyrrolidine and Imidazolidine Based DNA Polymerase Theta Inhibitors and Use Thereof” (Thomas Jefferson University, priority 2022, published 2026) are IC50 values, retold here.

The IC50 is the concentration that gives 50% inhibition.

In one assay the target is T1, human Polq polymerase domain (Homo sapiens, UniProt O75417).
T1 sequence (O75417 1792-2590): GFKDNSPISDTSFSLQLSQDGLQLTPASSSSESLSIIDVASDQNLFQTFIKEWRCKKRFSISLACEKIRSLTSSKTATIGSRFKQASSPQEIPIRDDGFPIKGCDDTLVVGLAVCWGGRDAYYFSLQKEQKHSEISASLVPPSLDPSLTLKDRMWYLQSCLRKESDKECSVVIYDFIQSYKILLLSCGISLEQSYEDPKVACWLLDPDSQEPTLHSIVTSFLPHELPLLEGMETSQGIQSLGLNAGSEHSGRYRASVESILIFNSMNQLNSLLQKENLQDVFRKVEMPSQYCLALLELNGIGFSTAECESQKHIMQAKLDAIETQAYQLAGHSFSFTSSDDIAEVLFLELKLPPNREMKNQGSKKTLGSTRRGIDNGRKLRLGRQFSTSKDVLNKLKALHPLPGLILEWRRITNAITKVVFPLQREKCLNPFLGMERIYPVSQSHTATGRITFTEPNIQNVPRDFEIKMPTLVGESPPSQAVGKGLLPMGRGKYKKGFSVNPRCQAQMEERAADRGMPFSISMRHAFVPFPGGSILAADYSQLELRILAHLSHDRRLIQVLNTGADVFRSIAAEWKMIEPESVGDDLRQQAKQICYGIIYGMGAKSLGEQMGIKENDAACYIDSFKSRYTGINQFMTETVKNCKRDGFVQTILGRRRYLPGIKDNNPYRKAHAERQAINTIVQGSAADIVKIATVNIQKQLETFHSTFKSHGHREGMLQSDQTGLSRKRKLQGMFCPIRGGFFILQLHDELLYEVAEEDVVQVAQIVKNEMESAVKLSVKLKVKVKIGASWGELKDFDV
Description: Cy5 fluorescence assay of Polq polymerase domain inhibition.
Conditions: not given
Format: biochemical. The procedure:
The following Cy5 fluorescence assay was used to measure the ability of compounds to inhibit Polq polymerase domain in vitro. The fluorescent based assay was performed as follows: 60 nM of the pre-annealed primer-template containing a 5′ Cy5 fluorophore conjugated template strand (SEQ ID NO:3: 5′-/5Cy5/[…]-3′), a downstream complementary oligo conjugated with a 3′ Blackhole quencher (SEQ ID NO:4: 5′-CTAAGCTCACAGTG/3IAbRQSp/-3′) and a primer strand (SEQ ID NO:5: 5′-CTGTCCTGCATGATG-3′) was mixed with 50 uM 2′-deoxyribonucleoside triphosphates (dNTPs), 0.1 mg/mL Bovine serum albumin (BSA), 0.01% NP-40, 10% glycerol, 1 mM dithiothreitol (DTT), 10 mM MgCl2, 25 mM TrisHCl pH 7.8 in the presence of 2.5% DMSO with or without various concentrations (7-point dilution series) of Polq small molecule inhibitors represented by Formula I at 37 °C in a volume of 40 μL.
The molecule `[2H]C([2H])([2H])N(C(=O)Oc1c(N2CCN(CC3(O)CNC3)C2=O)cc(C(F)(F)F)cc1C(F)(F)F)c1ccc(F)c(Cl)c1F` [Example 37, 2-(3-((3-hydroxyazetidin-3-yl)methyl)-2-oxoimidazolidin-1-yl)-4,6-bis(trifluoromethyl)phenyl (3-chloro-2,4-difluorophenyl)(methyl-d3)carbamate] returned an IC50 of 2.7 nM.

Molecule `CN(C(=O)Oc1c(N2CCN(CC3(O)CNC3)C2=O)cc(C(F)(F)F)cc1C(F)(F)F)c1ccc(F)c(Cl)c1F` [Example 38, 2,4-bis(trifluoromethyl)-6-(3-((3-hydroxyazetidin-3-yl)methyl)-2-oxoimidazolidin-1-yl)phenyl (3-chloro-2,4-difluorophenyl)(methyl)carbamate] showed an IC50 of 7.8 nM.

Molecule `[2H]C([2H])([2H])N(C(=O)Oc1c(N2CCN(CC3(OS(N)(=O)=O)CN(C(=O)OC(C)(C)C)C3)C2=O)cc(C(F)(F)F)cc1C(F)(F)F)c1ccc(F)c(Cl)c1F` [Example 39, tert-butyl 3-((3-(2-(((3-chloro-2,4-difluorophenyl)(methyl-d3)carbamoyl)oxy)-3,5-bis(trifluoromethyl)phenyl)-2-oxoimidazolidin-1-yl)methyl)-3-(sulfamoyloxy)azetidine-1-carboxylate] registered an IC50 of 3.8 nM.

Molecule `[2H]C([2H])([2H])N(C(=O)Oc1c(N2CCN(CC(O)CN(C)C)C2=O)cc(C(F)(F)F)cc1C(F)(F)F)c1ccc(F)c(Cl)c1F` (stereo not shown) [Example 40, 2-(3-(3-(dimethylamino)-2-hydroxypropyl)-2-oxoimidazolidin-1-yl)-4,6-bis(trifluoromethyl)phenyl (3-chloro-2,4-difluorophenyl)(methyl-d3)carbamate] returned an IC50 of 6.3 nM.

For the molecule `[2H]C([2H])([2H])N(C(=O)Oc1c(N2C[C@@H](O)[C@@H](O)C2)cc(C(F)(F)F)cc1C(F)(F)F)c1ccc(F)cc1` [Example 41], the IC50 is 5.5 nM.

The molecule `[2H]C([2H])([2H])N(C(=O)Oc1c(N2CCN(CCn3ccnc3)C2=O)cc(C(F)(F)F)cc1C(F)(F)F)c1ccc(F)cc1` [Example 42, 2-(3-(2-(1H-imidazol-1-yl)ethyl)-2-oxoimidazolidin-1-yl)-4,6-bis(trifluoromethyl)phenyl (4-fluorophenyl)(methyl-d3)carbamate] returned an IC50 of 11.7 nM.

`[2H]C([2H])([2H])N(C(=O)Oc1c(N2CCN(CCn3cnnc3)C2=O)cc(C(F)(F)F)cc1C(F)(F)F)c1ccc(F)cc1` [Example 43, 2-(3-(2-(4H-1,2,4-triazol-4-yl)ethyl)-2-oxoimidazolidin-1-yl)-4,6-bis(trifluoromethyl)phenyl (4-fluorophenyl)(methyl-d3)carbamate]: half-maximal inhibition (IC50) required 5.4 nM.

As for `[2H]C([2H])([2H])N(C(=O)Oc1c(N2CCN(CC(O)CNC)C2=O)cc(C(F)(F)F)cc1C(F)(F)F)c1ccc(F)c(Cl)c1F` (stereo not shown) [Example 44, 2-(3-(2-hydroxy-3-(methylamino)propyl)-2-oxoimidazolidin-1-yl)-4,6-bis(trifluoromethyl)phenyl (3-chloro-2,4-difluorophenyl)(methyl-d3)carbamate], the IC50 turned out to be 7 nM.

With `CNCC(O)CN1CCN(c2cc(C(F)(F)F)cc(C(F)(F)F)c2OC(=O)N(C)c2ccc(F)c(Cl)c2F)C1=O` (stereo not shown) [Example 47, 2-(3-(2-hydroxy-3-(methylamino)propyl)-2-oxoimidazolidin-1-yl)-4,6-bis(trifluoromethyl)phenyl (3-chloro-2,4-difluorophenyl)(methyl)carbamate], it took 4.8 nM to reach half-maximal inhibition (IC50).

`CN(C(=O)Oc1c(N2CCNC2=O)cc(C(F)(F)F)cc1C(F)(F)F)c1ccc(F)cn1` [Example 52, 2-(2-oxoimidazolidin-1-yl)-4,6-bis(trifluoromethyl)phenyl (5-fluoropyridin-2-yl)(methyl)carbamate]: it took 11.4 nM to reach half-maximal inhibition (IC50).

As for `Cc1nc(N(C)C(=O)Oc2c(N3CCNC3=O)cc(C(F)(F)F)cc2C(F)(F)F)ccc1F` [Example 53, 2-(2-oxoimidazolidin-1-yl)-4,6-bis(trifluoromethyl)phenyl (5-fluoro-6-methylpyridin-2-yl)(methyl)carbamate], the IC50 stood at 2.7 nM.

With `CN(C(=O)Oc1c(N2CCN(CCO)C2=O)cc(Cl)cc1C(F)(F)F)c1ccc(F)cc1` [Example 54, 4-chloro-2-(3-(2-hydroxyethyl)-2-oxoimidazolidin-1-yl)-6-(trifluoromethyl)phenyl (4-fluorophenyl)(methyl)carbamate], the midpoint of inhibition, the IC50, lay at 68 nM.

For `CN(C(=O)Oc1c(Cl)cc(Cl)cc1N1CCN(CCO)C1=O)c1ccc(F)cc1` [Example 55, 2,4-dichloro-6-(3-(2-hydroxyethyl)-2-oxoimidazolidin-1-yl)phenyl (4-fluorophenyl)(methyl)carbamate], the IC50 came out at 133 nM.

Still in this assay, the particulars now being: 5 nM Polq polymerase domain (residues 1792-2590), 60 nM primer-template, 50 uM dNTPs, 37 °C, 18 min; read-out: IC50 (nM) Polq.
As to `[2H]C([2H])([2H])N(C(=O)Oc1c(N2CCN(CC(O)CNC)C2=O)cc(C(F)(F)F)cc1C(F)(F)F)c1ccc(F)cc1` (stereo not shown) [Example 45, 2-(3-(2-hydroxy-3-(methylamino)propyl)-2-oxoimidazolidin-1-yl)-4,6-bis(trifluoromethyl)phenyl (4-fluorophenyl)(methyl-d3)carbamate], the IC50 was 6.1 nM.

Turning to `[2H]C([2H])([2H])N(C(=O)Oc1c(N2CCN(CC(O)CN(C)C)C2=O)cc(C(F)(F)F)cc1C(F)(F)F)c1ccc(F)cc1` (stereo not shown) [Example 46, 2-(3-(3-(dimethylamino)-2-hydroxypropyl)-2-oxoimidazolidin-1-yl)-4,6-bis(trifluoromethyl)phenyl (4-fluorophenyl)(methyl-d3)carbamate], the IC50 stood at 5.5 nM.

For the molecule `CNCC(O)CN1CCN(c2cc(C(F)(F)F)cc(C(F)(F)F)c2OC(=O)N(C)c2ccc(F)cc2)C1=O` (stereo not shown) [Example 48, 2-(3-(2-hydroxy-3-(methylamino)propyl)-2-oxoimidazolidin-1-yl)-4,6-bis(trifluoromethyl)phenyl (4-fluorophenyl)(methyl)carbamate], the IC50 amounted to 5.1 nM.

Consider `[2H]C([2H])([2H])N(C(=O)Oc1c(N2CCN(C[C@@H](O)CN(C)C)C2=O)cc(C(F)(F)F)cc1C(F)(F)F)c1ccc(F)cc1` [Example 49, (S)-2-(3-(3-(dimethylamino)-2-hydroxypropyl)-2-oxoimidazolidin-1-yl)-4,6-bis(trifluoromethyl)phenyl (4-fluorophenyl)(methyl-d3)carbamate], for which the IC50 came out at 7.5 nM.

Consider `[2H]C([2H])([2H])N(C(=O)Oc1c(N2CCN(C[C@H](O)CN(C)C)C2=O)cc(C(F)(F)F)cc1C(F)(F)F)c1ccc(F)cc1` [Example 50, (R)-2-(3-(3-(dimethylamino)-2-hydroxypropyl)-2-oxoimidazolidin-1-yl)-4,6-bis(trifluoromethyl)phenyl (4-fluorophenyl)(methyl-d3)carbamate], for which the IC50 was found to be 5.1 nM.

Consider `CN(C(=O)Cc1c(N2CCNC2=O)cc(C(F)(F)F)cc1C(F)(F)F)c1ccc(F)cc1` [Example 51, N-(4-fluorophenyl)-N-methyl-2-(2-(2-oxoimidazolidin-1-yl)-4,6-bis(trifluoromethyl)phenyl)acetamide], for which the IC50 amounted to 117 nM.
